# In patent publication US20220370463A1, “STABILIZED C-FMS INTRACELLULAR FRAGMENTS (FICD) PROMOTE OSTEOCLAST DIFFERENTIATION AND ARTHRITIC BONE EROSION” (New York Society for the Relief of the Ruptured and …, priority 2019, published 2022):
# Entries after “also recorded” stand apart in the source; their conditions may differ.
# B1: IL-34: ligand for c-FMS (protein, UniProt Q6ZMJ4 21-242, looked up)
# Interleukin-34: NEPLEMWPLTQNEECTVTGFLRDKLQYRSRLQYMKHYFPINYKISVPYEGVFRIANVTRLQRAQVSERELRYLWVLVSLSATESVQDVLLEGHPSWKYLQEVETLLLNVQQGLTDVEVSPKVESVLSLLNAPGPNLKLVRPKALLDNCFRVMELLYCSCCKQSSVLNWQDCEVPSPQSCSPEPSLQYAATQLYPPPPWSPSSPPHSTGSVRPVRAQGEGLLP
# B2: M-CSF: ligand for c-FMS (protein, UniProt P09603 33-554, looked up)
# Macrophage colony-stimulating …: EEVSEYCSHMIGSGHLQSLQRLIDSQMETSCQITFEFVDQEQLKDPVCYLKKAFLLVQDIMEDTMRFRDNTPNAIAIVQLQELSLRLKSCFTKDYEEHDKACVRTFYETPLQLLEKVKNVFNETKNLLDKDWNIFSKNCNNSFAECSSQDVVTKPDCNCLYPKAIPSSDPASVSPHQPLAPSMAPVAGLTWEDSEGTEGSSLLPGEQPLHTVDPGSAKQRPPRSTCQSFEPPETPVVKDSTIGGSPQPRPSVGAFNPGMEDILDSAMGTNWVPEEASGEASEIPVPQGTELSPSRPGGGSMQTEPARPSNFLSASSPLPASAKGQQPADVTGTALPRVGPVRPTGQDWNHTPQKTDHPSALLRDPPEPGSPRISSLRPQGLSNPSTLSAQPQLSRSHSSGSVLPLGELEGRRSTRDRRSPAEPEGGPASEGAARPLPRFNSVPLTDTGHERQSEGSFSPQLQESVFHLLVPSVILVLLAVGGLLFYRWRRRSHQEPQRADSPLEQPEGSPLTQDDRQVELPV
# Tests used:
# [1] = system: FICDs (c-FMS intracellular fragments); assay: FICD generation in M-CSF-cultured human CD14+ cells, immunoblot of whole lysates; type: cell-based; details: BB94 10 uM for 2 days after 8 hours M-CSF (20 ng/ml)
# Protocol: FIGS. 8A-8I show c-FMS expression in synovial macrophages. (A) The levels of M-CSF in synovial fluids from patients with rheumatoid arthritis (RA, n=13) and osteoarthritis (OA, n=8) were measured. (B) Mass spectrometry analysis for proteins from ˜50 kDa bands (red box) identified c-FMS as one of top genes. An image of coomassie blue stained genes showing immunoprecipitated cells lysates with either anti-DDK-tag antibodies or IgG control. (C-G) Human CD14+ cells were cultured with M-CSF (20ng/ml). Immunoblot of c-FMS with different antibodies against C-terminal of c-FMS; (C) C-20, (D) D-8, and (E) #3152. Immunoblot of c-FMS with different antibodies against N-terminal of c-FMS; (F) #61701, (G) H-300. (H-I) Human CD14+ cells were cultured with M-CSF (20 ng/ml) for 8 hours to induce early signals, and then BB94 (10 uM) was added for 2 days. (H) Immunoblot with anti c-FMS and α-tubulin antibodies in whole lysates (n=3). (I) Soluble c-FMS was detected by ELISA (n=3). […] All data are shown as mean±SEM. *; p<0.05 significant by two-tailed, paired t-test (A and I). M: mature form, I: immature form, H: hgh mass, L: low mass.
# FIGS. 10A-10F show calpain regulates FICD generation. (A and B) Human CD14+ cells were cultured with M-CSF (20 ng/ml) for 8 hours to induce early signals and then (A) MDL 28170(0, 1, 2, 5 uM) or (B) PD150606 (0, 2, 5 uM) was added for 2 days. […]
# [2] = system: soluble c-FMS (ectodomain shedding of c-FMS); assay: Soluble c-FMS in culture media of human CD14+ cells, ELISA; type: cell-based; details: BB94 10 uM for 2 days after 8 hours M-CSF (20 ng/ml)
# Protocol: FIGS. 8A-8I show c-FMS expression in synovial macrophages. (A) The levels of M-CSF in synovial fluids from patients with rheumatoid arthritis (RA, n=13) and osteoarthritis (OA, n=8) were measured. (B) Mass spectrometry analysis for proteins from ˜50 kDa bands (red box) identified c-FMS as one of top genes. An image of coomassie blue stained genes showing immunoprecipitated cells lysates with either anti-DDK-tag antibodies or IgG control. (C-G) Human CD14+ cells were cultured with M-CSF (20ng/ml). Immunoblot of c-FMS with different antibodies against C-terminal of c-FMS; (C) C-20, (D) D-8, and (E) #3152. Immunoblot of c-FMS with different antibodies against N-terminal of c-FMS; (F) #61701, (G) H-300. (H-I) Human CD14+ cells were cultured with M-CSF (20 ng/ml) for 8 hours to induce early signals, and then BB94 (10 uM) was added for 2 days. […] (I) Soluble c-FMS was detected by ELISA (n=3). […]
# c-FMS and M-CSF in synovial fluids and the supernatants of cell culture was measured using sandwich ELISA kit (R&D Systems; DY329 and DY216) according to manufacturer's instructions. C-telopeptide of type I collagen (CTX-1) and Procollagen 1 N-Terminal Propeptide (P1NP) in Serum from WT and FICDtg^M mice were measured using RatLapstm EIA kit (Immunodiagnostic Systems; AC-06F1) or P1NP-ELISA kit (Cloud-Clone corp; SEA957Mu) according to the manufacturer's instructions.
# [3] = system: FICD (mem, H-FICD, L-FICD); assay: FICD in membrane, cytoplasmic and nuclear fractions of human OCPs, immunoblot; type: cell-based; details: for generation of H-FICD and L-FICD and cellular distribution of FICDs: human CD14+ cells stimulated with ligand (20 ng/ml)
# Protocol: (a) Human CD14+ cells were cultured with M-CSF (20 ng/ml) for 8 hours to induce early signals and then DAPT (10uM) was added for 2 days. Protein expression of c-FMS, Na+K+ pump, Lamin B1 and α-tubulin, as determined by immunoblot. ME; membrane extracts, CE; cytoplasmic extracts, and NE; nuclear extracts. (b) Immunohistochemistry of DAPI and c-FMS [middle]. […] Scale: 200×. (c) Cells were starved for three hours and then stimulated with M-CSF for the indicated times. (d and e) Cells were treated with Imatinib (0.3 μM, d) or c-FMS blocking antibody (5 μg) prior to the addition of M-CSF. Protein expression of FICD was measured by immunoblot. Lamin B1 and α-tubulin were used as controls for nuclear and cytoplasmic fractions, respectively. (f) Human CD14+ cells were cultured with M-CSF (20 ng/ml) for 8 hours to induce early signals and then MDL 28170(5 uM). Immunoblot with anti c-FMS and Lamin B1 antibodies. (g and h) Calpain 1, 5, and 6 were knocked down with siRNAs. Cells were cultured with M-CSF for 12 hours. (g) Efficiency of knockdown of Calpain 1, 5, and 6. (h) Immunoblot of c-FMS and Lamin B1. All data are shown as mean±SEM. *,p<0.05 by two-tailed, unpaired t-test (g). Representative results from at least three independent experiments.
# (A and B) Human CD14+ cells were cultured with M-CSF (20 ng/ml) for 8 hours to induce early signals and then (A) MDL 28170(0, 1, 2, 5 uM) or (B) PD150606 (0, 2, 5 uM) was added for 2 days. Immunoblot with anti c-FMS and α-tubulin antibodies in whole lysates(n=3). (C) Immunoblot of nuclear lysates with c-FMS and Lamin B1 antibodies. Cells were cultured with M-CSF for 12 hours, and then M-CSF was removed. Cells were subsequently treated with or without CaCl2 (10 mM) for an additional 24 hours. (D) Osteoclastogenesis assay. Human CD14+ cells were cultured with M-CSF, RANKL and MDL28170 for 4 days. […] Black scale bar is 100 μm. […] First two calpain cleavage sites in cytoplasmic domains of c-FMS were used for FICD constructs. (F) A schematic diagram of a FICD construct. Representative results from at least three independent experiments.
# Whole cell extracts were prepared by lysis in buffer containing 1× Lamin sample buffer (Bio-rad) and 2-Mercaptoethanol (Sigma) or RIPA buffer (Sigma). The cell membrane-permeable protease inhibitor, Pefablock (1 mM), was added immediately prior to harvest cells. The membrane proteins were extracted with Mem-PER™ Plus Membrane Protein Extraction Kit (Thermorfisher scientific; 89842) according to manufacturer's instructions. To extracts of nucleus protein, cells were incubated in buffer A (10 mM Hepes, pH 7.9, 1.5 mM MgCl2, 10 mM KCl, 0.1 mM EDTA, 0.1 mM EGTA, proteinase inhibitor cocktail (Complete, Roche) and 1 mM DTT) for 15 min at 4° C. NP-40 was added to a final concentration of 0.5%. Nucleus was collected by centrifugation (5000 rpm, 5 min). The pellets were lysed by Bioruptor-ultrasonicator (UCD400, Diagenode) in buffer B (20 mM Hepes, pH 7.9, 0.4M NaCl, 10 mM KCl, 1 mM EDTA, 1 mM EGTA, 10% Glycerol, proteinase inhibitor cocktail and 1 mM DTT) and collected the supernatant by centrifugation (12,000 rpm, 10 min). The protein concentration of nuclear extracts was quantitated using the Bradford assay (Bio-Rad; 5000001). For immunoblot, proteins were separated on 7.5 or 10% SDS-PAGE gels, transferred to polyvinylidene difluoride membranes (PVDF, Millipore; ISEQ00010), and detected by antibodies as listed in the figure legends.
# [4] = system: L-FICD generation; assay: Screening of 53 protease inhibitors from a protease library for L-FICD generation; type: cell-based
# Text: To identify the protease(s) responsible for cleavage of H-FICD in an unbiased manner, we performed a screening of 53 protease inhibitors using a protease library. The best hits associated with the inhibition of L-FICD generation were MDL28170 and PD150606—two calpain inhibitors—along with MMP inhibitors and γ-secretase inhibitors. Calpain is the family of calcium-dependent cytosolic cysteine proteases expressed ubiquitously in mammals and many other organisms (Pfaff, M., Du, X. & Ginsberg, M. H. Calpain cleavage of integrin beta cytoplasmic domains. FEBS Lett 460, 17-22 (1999)), and calpain-dependent cleavages contribute to modulating various cellular functions such as apoptosis, proliferation and migration (Deshpande, R. V. et al. Calpain expression in lymphoid cells. Increased mRNA and protein levels after cell activation. J Biol Chem 270, 2497-2505 (1995). Svensson, L. et al. Calpain 2 controls turnover of LFA-1 adhesions on migrating T lymphocytes. PloS one 5, e15090, doi:10.1371/journal.pone.0015090 (2010).). […] Since calpain is activated by calcium, we examined if calcium signaling could compensate for M-CSF signaling to generate FICDs. In the absence of c-FMS signaling, calcium signaling was able to promote the cleavage of […] in the nucleus, and […] reversed the effect of calcium signaling on L-FICD processing (FIG.10C). […]
# [5] = system: arthritic bone erosion; details: rheumatoid arthritis patients; cited from earlier work
# [6] = DAPT 10uM for 2 days after 8 hours M-CSF (20 ng/ml)
molecule,measurement,setting,value
CNC(=O)[C@H](Cc1ccccc1)NC(=O)[C@H](CC(C)C)[C@H](CSc1cccs1)C(=O)NO [BB94],generation of FICDs,[1],suppressed the generation of FICDs
same,"ectodomain shedding of c-FMS, soluble c-FMS in the media",[2],inhibited the ectodomain shedding of c-FMS; also recorded: inhibited the shedding of c-FMS and diminished soluble c-FMS in the media
"C[C@H](NC(=O)Cc1cc(F)cc(F)c1)C(=O)N[C@H](C(=O)OC(C)(C)C)c1ccccc1 [DAPT, N-[N-(3,5-difluorophenacetyl)-L-alanyl]-S-phenylglycine t-butyl ester]",cytosol and nuclear FICDs,[3]; [6],suppressed
same,membrane-bound FICD,[3]; [6],membrane-bound FICD accumulated
O=C(O)/C(S)=C/c1ccc(I)cc1 [PD150606],inhibition of L-FICD generation (hit in screening),[4],best hits
denosumab: an anti-RANKL antibody,RA disease activity,[5],without affecting
same,progression of arthritic bone erosion,[5],shows efficacy
B1,generation of H-FICD and L-FICD and cellular distribution of FICDs,[3],induced
B2,generation of H-FICD and L-FICD and cellular distribution of FICDs,[3],induced
